# From patent publication US20080213250A1, “Use of Eph Receptor Inhibitors for the Treatment of Neurodegenerative Diseases” (priority 2004, published 2008)
# Tested on: TAP-tagged Eph kinases
# Assay: Autophosphorylation of TAP-tagged Eph kinases in-vitro
# Assay type: biochemical
# Details: data not shown
smiles,measurement,value
CSc1cccc(Nc2ncc3cc(-c4c(Cl)cccc4Cl)c(=O)n(C)c3n2)c1 [PD173955],inhibition of autophosphorylation of TAP-tagged Eph kinases in-vitro,potent inhibitors
